Read-outs that look alike come from different tables or passages of the source.
Key:
Lovo = test: MTT cytotoxicity assay, Lovo; format: cell-based; conditions: Homo sapiens, 96 h compound exposure, read-out: absolute IC50, Lovo
Description: (§1) Lovo: cell line derived from a metastatic site in a patient with colon cancer MCF7: human oestrogen sensitive mammary epithelial cell line PC3: human prostate cancer cell line A549: cancerous lung tissue derived cells L1210: lymphoblast cell line derived from a mouse with lymphocytic leukaemia FM3A: mammary carcinoma murine cells CEM: human T-lymphoblasts, derived from the blood of a patient with acute lymphoblastic leukaemia HeLa: epithelial cells from a patient with cervical adenocarcinoma
(§2) Anti-tumour evaluation in MCF7, LoVo, A549 and PC3 cell lines was performed by MTT assay. Compounds were prepared as 0.1-100 mM stock solutions dissolved in DMSO and stored at −20° C. Cells were seeded into 96-well microtitre plates at a density of 5×10^3 cells per well and allowed 24 hours to adhere. Decimal compound dilutions were prepared in medium immediately prior to each assay (final concentration 0.1-100 μM). Experimental medium was DMEM+10% FCS (PC3 and Lovo) or RPMI+10% heat inactivated FCS (A549 and MCF7). Following 96 h compound exposure at 37° C., 5% CO2, MTT reagent (Sigma Aldrich) was added to each well (final concentration 0.5 mg/ml). Incubation at 37° C. for 4 h allowed reduction of MTT by viable cells to an insoluble formazan product. MTT was removed and formazan solubilised by addition of 10% Triton X-100 in PBS. Absorbance was read on a Tecan Sunrise spectrophotometer at 540 nm as a measure of cell viability; thus inhibition relative to control was determined (IC50).

MCF7 = test: MTT cytotoxicity assay, MCF7; format: cell-based; conditions: Homo sapiens, 96 h compound exposure, read-out: absolute IC50, MCF7
Description: as §1, §2

A549 = test: MTT cytotoxicity assay, A549; format: cell-based; conditions: Homo sapiens, 96 h compound exposure, read-out: absolute IC50, A549
Description: as §1, §2

MDAMB231 = test: CellTiterGlo viability assay, MDAMB231; format: cell-based, Human; conditions: for IC50: Homo sapiens, read-out: IC50 MDAMB231
Experimental: In vitro viability assay were performed to assess the effects of compounds on cell viability in selected cell lines over ˜72 hrs using the CellTiterGlo (CTG, Promega-G7573) assay. The tests were performed in duplicates with treatment of compounds at 9 points, 3.16 folds titration in 96 well plates over ˜72 hrs. The compound starting concentrations were 198 μM. Cell viability assay using CellTiterGlo in 96-well plate were performed. Compound treatment 72 hrs, standard growth conditions, duplicates. Compounds were dissolved to 40 mM with thawed […]. Compounds were serially diluted at 3.16 fold in thawed DMSO, and warmed to 37° C. before being dissolved in media (2 μl+200 μl). After compounds were dissolved in media, media containing compounds were warmed to 37° C. in incubator and then compounds in media were added to cell plates (50 μl+50 μl) in duplicates. The compounds' final concentrations were from […] to 19.9 nM. All compound solubilities were checked and recorded again, then the plates were transferred to CO2 tissue culture incubator immediately and incubated for 3 days. DMSO final concentration is 0.5%.

HL-60 = test: ATP ViaLight cytotoxicity assay, HL-60; format: cell-based; conditions: Homo sapiens, HL-60, 72 h
Experimental: (§3) HL-60, CTS, and K-562 are leukaemia cell lines, which were obtained from the American Type Culture Collection (ATCC), Middlesex. HL-60 cell line is of acute promyelocytic leukaemia; CTS cell line is of acute myeloid leukaemia; and K-562 cell line is of chronic myeloid leukaemia.
(§4) HL-60, CTS, and K-562 cell lines were cultured in RPMI-1640 medium (Sigma Aldrich, UK), which was supplemented with 10% Fetal Bovine Serum (FBS) (PAA Laboratories), 1% amphotericin B (5.5 ml) and 1% penicillin/streptomycin (5.5 ml) (PAA Laboratories) and grown in flasks at 37° C. incubator with 5% CO2.
(§5) For inhibitor studies the cell lines were treated in the same way as described above but before treatment with drugs, a number of inhibitors were added: • 1) Nitrobenzylthioinosine (NBTI) (Sigma-Aldrich, St. Louis, Mo.) inhibits hENT1. • 2) A-134974 dihydrochloride hydrate (Sigma-Aldrich, St. Louis, Mo.) inhibits adenosine kinase. • 3) EHNA hydrochloride (Sigma-Aldrich, St. Louis, Mo.) inhibits adenosine deaminase.
(§6) ATP ViaLight™ plus assay kit (Lonza, USA: Product No. LT07-121) was used for treating the cells in luminescence compatible 96 well plates (initial concentration of cells was 1×10^4 cells/well) with 8-Cl-A and ProTides, concentrations: 0, 0.1, 0.5, 1, 5 and 10 μM were added to cells, respectively, followed by incubation for 72 hours at 37° C. incubator with 5% CO2. For inhibitor studies, […] concentration of each inhibitor was added before drugs and incubated for 72 hours at 37° C. with 5% CO2.
(§7) After incubation, 50 μl of cell lysis reagent was added to the 96 well plates to release the intracellular ATP, followed by 100 μl of ATP monitoring reagent (AMR). The luminescent values of each well were determined using FLUOstar OPTIMA microplate reader (BMG Labtech) which converted ATP into light by using luciferase enzyme.
(§8) The dose-response curves of cytotoxicity of the drugs was determined using non-linear regression analysis of percentage cell viability versus concentration and EC50 values were obtained. The intracellular assay was conducted in five repeats for each condition. Intracellular assay was determined using paired T test (two-tailed) analysis of 8-ChloroATP/ATP concentration and p values were obtained. Drug stability in human plasma was determined using two-way ANOVA analysis. For all the analysis, Prism Software program (GraphPad Software) was used.

K-562 = test: ATP ViaLight cytotoxicity assay, K-562; format: cell-based; conditions: Homo sapiens, K562, 72 h
Experimental: as §3, §4, §5, §6, §7, §8

[1] = with A-134974 (adenosine kinase inhibitor)

**Q.** `CC(C)C[C@H](NP(=O)(OC[C@H]1O[C@@H](n2c(Cl)nc3c(N)ncnc32)C(O)C1O)Oc1ccccc1)C(=O)OCc1ccccc1` (stereo partly drawn) [V, 5′-([(Benzyloxy-L-leucin-N-yl)-phenyl]-phosphatyl) 8-chloroadenosine] was tested. Which IC50 (Lovo) did it give?
**A.** 0.1 to 5 µM

**Q.** What about the IC50 (MCF7) of the same compound?
**A.** 0.1 to 5 µM

**Q.** What about the IC50 (A549) of the same compound?
**A.** 0.1 to 5 µM

**Q.** What about the “MI% MDAMB231” value (MDAMB231; CellTiterGlo, 72 hrs) of the same compound?
**A.** 99%

**Q.** And the IC50 (MDAMB231; MDA-MB-231, 72 h)?
**A.** 15 to 100 µM

**Q.** With `C[C@H](NP(=O)(OC[C@H]1O[C@@H](n2c(Cl)nc3c(N)ncnc32)C(O)C1O)Oc1cccc2ccccc12)C(=O)OCc1ccccc1` (stereo partly drawn) [Compound D, (2S)-Benzyl 2-(((((2R,3S,4R,5R)-5-(6-amino-8-chloro-9H-purin-9-yl)-3,4-dihydroxy-tetrahydrofuran-2-yl)methoxynaphthalene-1-yloxy)phosphoryl)amino)propanoate] as the compound, how does the EC50 (HL-60; Control (no inhibitor)) read?
**A.** 0.33 µM

**Q.** And the EC50 (HL-60; [1])?
**A.** 21.3 µM

**Q.** What about the EC50 (HL-60; with NBTI (hENT1 inhibitor)) of the same compound?
**A.** 1.23 µM

**Q.** What about the EC50 (K-562; Control (no inhibitor)) of the same compound?
**A.** 6.63 µM

**Q.** And the EC50 (K-562; [1])?
**A.** 19.7 µM

**Q.** What about the EC50 (K-562; with NBTI (hENT1 inhibitor)) of the same compound?
**A.** 1.73 µM

**Q.** Which IC50 (Lovo) does the source give for `Nc1ncnc2c1nc(Cl)n2[C@@H]1O[C@H](COP(=O)(NCC(=O)OCc2ccccc2)Oc2ccccc2)[C@@H](O)[C@H]1O` (mixture of isomers) [Compound B, Benzyl 2-(((((2R,3S,4R,5R)-5-(6-amino-8-chloro-9H-purin-9-yl)-3,4-dihydroxytetra-hydrofuran-2-yl)methoxy)(phenoxy)phosphoryl)amino)acetate] here?
**A.** 0.1 to 5 µM

**Q.** What about the IC50 (MCF7) of the same compound?
**A.** 15 to 100 µM

**Q.** And the IC50 (A549)?
**A.** 5 to 15 µM

**Q.** What about the “MI% MDAMB231” value (MDAMB231; CellTiterGlo, 72 hrs) of the same compound?
**A.** 76%

**Q.** And the IC50 (MDAMB231; MDA-MB-231, 72 h)?
**A.** 5 to 15 µM

**Q.** And the EC50 (HL-60; Control (no inhibitor))?
**A.** 0.49 µM

**Q.** What about the EC50 (HL-60; [1]) of the same compound?
**A.** 14.6 µM

**Q.** What about the EC50 (HL-60; with NBTI (hENT1 inhibitor)) of the same compound?
**A.** 8.76 µM

**Q.** What about the EC50 (K-562; Control (no inhibitor)) of the same compound?
**A.** 2.86 µM

**Q.** And the EC50 (K-562; with NBTI (hENT1 inhibitor))?
**A.** 12.8 µM

**Q.** For `Nc1ncnc2c1nc(Cl)n2[C@@H]1O[C@H](CO)[C@@H](O)[C@H]1O` [8-chloroadenosine, 8-Chloroadenosine, reference compound], which IC50 (Lovo) is on record?
**A.** 0.1 to 5 µM

**Q.** What about the IC50 (MCF7) of the same compound?
**A.** 0.1 to 5 µM

**Q.** And the IC50 (A549)?
**A.** 0.1 to 5 µM

**Q.** What about the “MI% MDAMB231” value (MDAMB231; CellTiterGlo, 72 hrs) of the same compound?
**A.** 74%

**Q.** And the IC50 (MDAMB231; MDA-MB-231, CellTiterGlo, 72 hrs)?
**A.** 0.1 to 5 µM

**Q.** What about the EC50 (HL-60; Control (no inhibitor)) of the same compound?
**A.** 0.64 µM

**Q.** What about the EC50 (HL-60; with NBTI (hENT1 inhibitor)) of the same compound?
**A.** 0.96 µM

**Q.** And the EC50 (K-562; Control (no inhibitor))?
**A.** 0.64 µM

**Q.** And the EC50 (K-562; with NBTI (hENT1 inhibitor))?
**A.** 4.69 µM

**Q.** With `C[C@H](NP(=O)(OC[C@H]1O[C@@H](n2c(Cl)nc3c(N)ncnc32)[C@H](O)[C@@H]1O)Oc1ccccc1)C(=O)OCc1ccccc1` (mixture of isomers) [C, (2S)-Benzyl 2-(((((2R,3S,4R,5R)-5-(6-amino-8-chloro-9H-purin-9-yl)-3,4-dihydroxy-tetrahydrofuran-2-yl)methoxy)(phenoxy)phosphoryl)amino)propanoate] as the compound, how does the IC50 (Lovo) read?
**A.** 0.1 to 5 µM

**Q.** What about the IC50 (MCF7) of the same compound?
**A.** 15 to 100 µM

**Q.** What about the IC50 (A549) of the same compound?
**A.** 15 to 100 µM

**Q.** `Nc1ncnc2c1nc(Cl)n2[C@@H]1O[C@H](COP(=O)(NCC(=O)OC2CCCCC2)Oc2ccccc2)[C@@H](O)[C@H]1O` (mixture of isomers) [Compound A, Cyclohexyl 2-(((((2R,3S,4R,5R)-5-(6-amino-8-chloro-9H-purin-9-yl)-3,4-dihydroxy-tetrahydrofuran-2-yl)methoxy)(phenoxy)phosphoryl)amino)acetate] was tested. Which IC50 (Lovo) did it give?
**A.** 0.1 to 5 µM

**Q.** What about the IC50 (MCF7) of the same compound?
**A.** 15 to 100 µM

**Q.** And the IC50 (A549)?
**A.** 15 to 100 µM

**Q.** What about the EC50 (HL-60; Control (no inhibitor)) of the same compound?
**A.** 12.4 µM

From US20190375778A1, “ADENOSINE DERIVATIVES FOR USE IN THE TREATMENT OF CANCER” (NuCana plc, priority 2016, published 2019)
